pIC50: −log10 of the molar value. Structures can show the parent of a compound that is named as a salt.
Legend:
[1] = system: EGF receptor tyrosine kinase; details: Fry et al., Science, 1994, 265, 1093; cited from earlier work
[2] = system: liver hepatocyte growth caused by the administration of the growth factor TGFα; assay: Test (c): in vivo inhibition of TGFα-stimulated liver hepatocyte growth in male rats (BrdU uptake); details: Rattus norvegicus, usually oral, TGFα 400 μg/kg subcutaneously, approximate ED50, BrdU uptake
Procedure: (c) An in vivo assay in a group of male rats which determines the ability of a test compound (usually administered orally as a ball-milled suspension in 0.5% polysorbate) to inhibit the stimulation of liver hepatocyte growth caused by the administration of the growth factor TGFα (400 μg/kg subcutaneously, usually dosed twice, 3 and 7 hours respectively after the administration of the test compound).
In a control group of rats, the administration of TGFα causes on average a 5-fold stimulation of liver hepatocyte growth.
Cell-growth in the control and test animals is determined as follows:
On the morning of the day after the dosing of the test compound (or 0.5% polysorbate in the control group), the animals are dosed with bromodeoxyuridine (BrdU; 100 mg/kg intraperitoneally). The animals are killed four hours later and the livers are excised.
Further tests were carried out using a range of doses of the test compounds to allow the calculation of an approximate ED50 value for the inhibition of liver hepatocyte proliferation as determined by inhibition of the uptake of BrdU.

[3] = system: human naso-pharyngeal cancer cell line KB; assay: Test (b): inhibition of the EGF-stimulated growth of the human naso-pharyngeal cancer cell line KB; assay type: cell-based; details: 72 h, KB cells, EGF (10 ng/ml), 3 days, MTT
Procedure: (b) An in vitro assay which determines the ability of a test compound to inhibit the EGF-stimulated growth of the human naso-pharyngeal cancer cell line KB.
KB cells were seeded into wells at a density of 1×10^4 -1.5×10^4 cells per well and grown for 24 hours in DHEM supplemented with 5% FCS (charcoal-stripped). Cell growth was determined after incubation for 3 days by the extent of metabolism of MTT tetrazolium dye to furnish a bluish colour. Cell growth was then determined in the presence of EGF (10 ng/ml) or in the presence of EGF (10 ng/ml) and a test compound at a range of concentrations. An IC50 value could then be calculated.

[4] = molecular target: T1, EGF receptor tyrosine kinase (Homo sapiens, UniProt P00533); assay: Test (a): in vitro inhibition of the enzyme EGF receptor tyrosine kinase (partially purified from A-431 cells); assay type: biochemical; details: EGF receptor tyrosine kinase from A-431 cells
T1 construct: Receptor tyrosine kinase was obtained in partially purified form from A-431 cells; endogenous in cells; host or cells: A-431 cells (human vulval carcinoma)
Procedure: (a) An in vitro assay which determines the ability of a test compound to inhibit the enzyme EGF receptor tyrosine kinase. Receptor tyrosine kinase was obtained in partially purified form from A-431 cells (derived from human vulval carcinoma) by procedures related to those described by Carpenter et al., J. Biol. Chem., 1979, 254, 4884, Cohen et al., J. Biol. Chem., 1982, 257, 1523 and by Braun et al., J. Biol. Chem., 1984, 259, 2051.
A-431 cells were grown to confluence using Dulbecco's modified Eagle's medium (DHEM) containing 5% fetal calf serum (FCS). The obtained cells were homogenised in a hypotonic borate/EDTA buffer at pH 10.1. The homogenate was centrifuged at 400 g for 10 minutes at 0°-4° C. The supernatant was centrifuged at 25,000 g for 30 minutes at 0°-4° C. The pelleted material was suspended in 30 mM Hepes buffer at pH 7.4 containing 5% glycerol, 4 mM benzamidine and 1% Triton X-100, stirred for 1 hour at 0°-4° C., and recentrifuged at 100,000 g for 1 hour at 0°-4° C. The supernatant, containing solubilised receptor tyrosine kinase, was stored in liquid nitrogen.
For test purposes 40 μl of the enzyme solution so obtained was added to a mixture of 400 μl of a mixture of 150 mM Hepes buffer at pH 7.4, 500 μM sodium orthovanadate, 0.1% Triton X-100, 10% glycerol, 200 μl water, 80 μl of 25 mH DTT and 80 μl of a mixture of 12.5 mM manganese chloride, 125 mM magnesium chloride and distilled water. There was thus obtained the test enzyme solution.
Each test compound was dissolved in dimethylsulphoxide (DMSO) to give a 50 mM solution which was diluted with 40 mM Hepes buffer containing 0.1% Triton X-100, 10% glycerol and 10% DMSO to give a 500 μM solution. Equal volumes of this solution and a solution of epidermal growth factor (EGF; 20 μg/ml) were mixed.
[γ-^32 P]ATP (3000 Ci/mM, 250 μCi) was diluted to a volume of 2 ml by the addition of a solution of ATP (100 μM) in distilled water. An equal volume of a 4 mg/ml solution of the peptide Arg-Arg-Leu-Ile-Glu-Asp-Ala-Glu-Tyr-Ala-Ala-Arg-Gly in a mixture of 40 mH Hepes buffer at pH 7.4, 0.1% Triton X-100 and 10% glycerol was added.
The test compound/EGF mixture solution (5 μl) was added to the test enzyme solution (10 μl) and the mixture was incubated at 0°-4° C. for 30 minutes. The ATP/peptide mixture (10 μl) was added and the mixture was incubated at 25° C. for 10 minutes. The phosphorylation reaction was terminated by the addition of 5% trichloroacetic acid (40 μl) and bovine serum albumin (BSA; 1 mg/ml, 5 μl). The mixture was allowed to stand at 4° C. for 30 minutes and then centrifuged. An aliquot (40 μl) of the supernatant was placed onto a strip of Whatman p 81 phosphocellulose paper. The strip was washed in 75 mH phosphoric acid (4×10 ml) and blotted dry. Radioactivity present in the filter paper was measured using a liquid scintillation counter (Sequence A). The reaction sequence was repeated in the absence of the EGF (Sequence B) and again in the absence of the test compound (Sequence C).
Receptor tyrosine kinase inhibition was calculated as follows: [formula]
The extent of inhibition was then determined at a range of concentrations of test compound to give an IC50 value.

[5] = system: human mammary carcinoma which expresses EGF receptor tyrosine kinase; details: athymic nude mice; Toi et al., 1990; cited from earlier work
[6] = system: another carcinoma which does not express EGF receptor tyrosine kinase; details: Toi et al., 1990; cited from earlier work

T1 sequence (P00533 25-1210): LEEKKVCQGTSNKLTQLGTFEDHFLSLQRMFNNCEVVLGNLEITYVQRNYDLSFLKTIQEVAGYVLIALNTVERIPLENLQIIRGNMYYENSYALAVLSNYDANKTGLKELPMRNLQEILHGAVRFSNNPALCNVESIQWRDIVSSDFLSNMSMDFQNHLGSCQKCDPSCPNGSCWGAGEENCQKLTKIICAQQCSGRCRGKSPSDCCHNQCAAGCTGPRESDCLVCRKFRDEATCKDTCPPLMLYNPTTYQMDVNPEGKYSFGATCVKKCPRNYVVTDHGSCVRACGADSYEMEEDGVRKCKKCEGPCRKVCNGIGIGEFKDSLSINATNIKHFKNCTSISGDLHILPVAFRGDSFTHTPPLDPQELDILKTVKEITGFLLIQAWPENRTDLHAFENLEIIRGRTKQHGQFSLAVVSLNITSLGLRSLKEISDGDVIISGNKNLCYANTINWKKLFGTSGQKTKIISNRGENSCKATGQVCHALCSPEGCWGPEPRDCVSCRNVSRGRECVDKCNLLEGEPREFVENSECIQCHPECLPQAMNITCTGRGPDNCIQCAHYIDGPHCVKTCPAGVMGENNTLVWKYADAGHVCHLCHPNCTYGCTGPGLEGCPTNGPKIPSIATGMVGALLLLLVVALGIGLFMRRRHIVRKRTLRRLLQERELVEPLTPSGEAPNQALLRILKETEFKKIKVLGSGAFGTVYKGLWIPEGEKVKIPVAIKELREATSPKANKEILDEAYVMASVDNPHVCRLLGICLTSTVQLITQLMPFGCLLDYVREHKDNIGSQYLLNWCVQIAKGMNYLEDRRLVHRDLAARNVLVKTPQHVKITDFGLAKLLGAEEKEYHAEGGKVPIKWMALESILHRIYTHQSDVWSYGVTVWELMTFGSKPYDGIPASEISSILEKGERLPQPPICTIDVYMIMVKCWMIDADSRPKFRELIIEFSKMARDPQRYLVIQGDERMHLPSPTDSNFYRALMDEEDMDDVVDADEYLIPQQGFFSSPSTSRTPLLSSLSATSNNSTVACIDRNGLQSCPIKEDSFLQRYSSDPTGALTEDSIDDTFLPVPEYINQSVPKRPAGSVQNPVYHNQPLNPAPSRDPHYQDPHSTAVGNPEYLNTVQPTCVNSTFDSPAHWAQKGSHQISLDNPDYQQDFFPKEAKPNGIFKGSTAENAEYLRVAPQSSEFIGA

COc1cc2ncnc(Nc3cccc(Br)c3)c2cc1OC [4-(3'-bromoanilino)-6,7-dimethoxyquinazoline]
inhibitor of EGF receptor tyrosine kinase [1]: highly potent inhibitor

COc1cc2ncnc(Nc3ccc(Sc4ccccc4)c(Cl)c3)c2cc1OC [4-(3-chloro-4-phenylthioanilino)-6,7-dimethoxyquinazoline]
ED50 [2]: 12.5 mg/kg | pIC50 [3]: 5.89 | pIC50 [4]: 7.10

COc1cc2ncnc(Nc3ccc(C(=O)c4ccccc4)c(Cl)c3)c2cc1OC.Cl [4-(4-benzoyl-3-chloroanilino)-6,7-dimethoxyquinazoline hydrochloride salt]
ED50 [2]: < 5 mg/kg | pIC50 [3]: 6.42 | pIC50 [4]: 7.52

COc1cc2ncnc(Nc3ccc(Cc4ccccc4)c(Cl)c3)c2cc1OC.I [4-(4-benzyl-3-chloroanilino)-6,7-dimethoxyquinazoline hydroiodide salt]
ED50 [2]: < 12.5 mg/kg | pIC50 [3]: 5.92 | pIC50 [4]: 7.00

COc1cc2ncnc(Nc3ccc(Sc4nccn4C)c(Cl)c3)c2cc1OC [4-[3-chloro-4-(1-methylimidazol-2-ylthio)anilino]-6,7-dimethoxyquinazolinedihydrochloride salt]
ED50 [2]: < 12.5 mg/kg | pIC50 [3]: 6.70 | pIC50 [4]: 8.15

COc1cc2ncnc(Nc3ccc(OCc4ccccn4)c(C)c3)c2cc1OC.Cl.Cl [6,7-dimethoxy-4-[3-methyl-4-(2-pyridylmethoxy)anilino]quinazoline dihydrochloride salt]
ED50 [2]: 5 mg/kg | pIC50 [3]: 6.03 | pIC50 [4]: 7.40

COc1cc2ncnc(Nc3ccc(OCc4ccccn4)c(C)c3)c2cc1OCCCN(C)C [6-(3-dimethylaminopropoxy)-7-methoxy-4-[3-methyl-4-(2-pyridylmethoxy)anilino]quinazoline]
pIC50 [3]: 6.37 | pIC50 [4]: 7.18

COc1cc2ncnc(Nc3ccc(OCc4ccccn4)c(C)c3)c2cc1OCCCN1CCOCC1 [7-methoxy-4-[3-methyl-4-(2-pyridylmethoxy)anilino]-6-(3-morpholinopropoxy)quinazoline]
pIC50 [3]: 5.68 | pIC50 [4]: 6.35

O=CN/C=C/c1cc(O)ccc1O [erbstatin]
growth of transplanted carcinoma expressing EGF receptor tyrosine kinase [5]: specifically attenuates the growth | growth of carcinoma not expressing EGF receptor tyrosine kinase [6]: without effect on the growth
